The record followed here is patent publication US20250231157A1, “METHOD FOR DETERMINING THE PARTITION OF NAPHTHENIC ACIDS FROM A PRODUCTION WATER MIMICKING SYSTEM AND MIMICKING SYSTEM” (PETRÓLEO BRASILEIRO S.A. – PETROBRAS, priority 2023, published 2025).

Series [1] is described as follows: Control experiments: availability of the species in alkaline aqueous medium without using the reactor. Type of series: physicochemical. The note with it: acid solubilized directly in aqueous phase, no reactor. The protocol: Previously, the back titration procedure was internalized and optimized (Example 1), ensuring that the reproducibility of the measurements was adequate (standard deviation values below 10%, for example) and that the recoveries were close to what was expected based on the purity of the reagents (i.e., close to or above 90%). […] Control experiments were performed (measuring the availability of the species in an aqueous medium, without using the reactor) by solubilizing the organic acid directly in the aqueous phase and titrating a 10.0 mL aliquot; the same way, experiments were performed in the reactor based on the standardization of heptol and salinity already discussed (3.5%).

Series [2] in a line: Partition equilibrium under the influence of salinity (NaCl), glass reactor, neutralization titration. The note with it: for Salting out effect (reduction in the number of moles contained in the aqueous phase): 30% (m·v^−1) NaCl versus tests without salinity. Type of series: physicochemical. The protocol:
The variation in salinity (and its effect on acidic species) is due to the large variation in salinity found between the portions of bottom-hole water, middle-well water and surface water. Thus, systems with salinity (i.e., NaCl) between 3.5 and 30% (m·v^−1) were tested in a glass reactor, and neutralization titration was performed (in triplicate analysis), as previously described. Furthermore, the experimental results were generated in triplicate, using 99% NaCl (Sigma-Aldrich) with five acidic species.

The mark [3] stands for this setting: Na2CO3 + NaHCO3 (3.48×10^−5 mol).
Setting [4] is: Salinity 3.5 (%, m · m^−1) NaCl.
[5] abbreviates: Salinity 18.0 (%, m · m^−1) NaCl.
The mark [6] stands for this setting: Salinity 30.0 (%, m · m^−1) NaCl.

Consider `O=C(O)c1ccccc1` [Benzoic Acid, benzoic acid], for which the “Availability (reference value)” value in series [1] (setting [3]) is on record as 72.2 % mol; in series [1] (NaHCO3 (3.45×10^−5 mol)) it was 83.1 % mol. In addition, the “Salting out effect (reduction in the number of moles contained in the aqueous phase)” value in series [2] was “approximately 400%”. Besides, the Migration in series [2] (setting [4]) is recorded as 83.0 %, mol; in series [2] (setting [5]) it was 41.0 %, mol; in series [2] (setting [6]), 22.5 %, mol; in series [2] (Salinity 30.0 (%, m · m^−1) NaCl, listed as benzoic acid), 22.51 %, mol.
`O=C(O)CCCCC1CCCCC1` [Cyclohexanepentanoic Acid, cyclohexanepentanoic acid]: the “Availability (reference value)” value in series [1] (setting [3]) and in series [1] (NaHCO3 (3.45×10^−5 mol)) was 100 % mol throughout. The “Migration to aqueous medium, approximate level over the salinity study” value in series [2] (0-30% NaCl) is recorded as about 5%. Further, in series [2] (3.5-30% NaCl, 95% reliability), the “Effect of the addition of salinity on migration” value was “no significant effect”. In addition, the Migration in series [2] (setting [4]) is on record as 5.5 %, mol; in series [2] (setting [5]) it was 5.5 %, mol; in series [2] (setting [6]) it was 4.8 %, mol.
Turning to `CCCCC(=O)O` [Pentanoic Acid, pentanoic acid], the “Availability (reference value)” value stood at 66.0 % mol in series [1] (setting [3]) and 90.7 % mol in series [1] (NaHCO3 (3.45×10^−5 mol)). Besides, the “Salting out effect (reduction in the number of moles contained in the aqueous phase)” value in series [2] was “approximately 300%”. Besides, the Migration in series [2] (setting [4]) was 73.3 %, mol; in series [2] (setting [5]), 40.0 %, mol; in series [2] (setting [6]), 23.3 %, mol.
